Measured values reported in PubChem BioAssay (NCI).
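These data come from cells grown in 96-well plates and exposed to compound for 48 hours at five concentrations. GI50 marks 50% less growth. Definition used: TGI = concentration required for complete inhibition of growth.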

Legend:
Assay in all cases: NCI-60 cell line screen, 48 h
[1] = test system: COLO 205 colon
[2] = test system: KM12 colon
[3] = test system: NCI-H226 lung
[4] = test system: NCI-H23 lung
[5] = test system: OVCAR-5 ovarian
[6] = test system: SNB-75 CNS
[7] = test system: SR leukemia
[8] = test system: U251 CNS
[9] = test system: HL-60(TB) leukemia
[10] = test system: SW-620 colon

| SMILES | GI50 [1] [µM] | TGI [1] [µM] | GI50 [2] [µM] | TGI [2] [µM] | GI50 [3] [µM] | TGI [3] [µM] | GI50 [4] [µM] | TGI [4] [µM] | GI50 [5] [µM] | TGI [5] [µM] | GI50 [6] [µM] | TGI [6] [µM] | GI50 [7] [µM] | TGI [7] [µM] | GI50 [8] [µM] | TGI [8] [µM] | TGI [9] [µM] | TGI [10] [µM] | GI50 [9] [µM] | GI50 [10] [µM] |
| --- | --- | --- | --- | --- | --- | --- | --- | --- | --- | --- | --- | --- | --- | --- | --- | --- | --- | --- | --- | --- |
| Cc1cc(N(CCCNc2ccnc3cc(Cl)ccc23)Cc2ccc3c(c2)OCO3)nc(N2CCCCC2)n1 | 1.66 | 3.33 | 2.15 | 5.39 | 4.03 | 20.5 | 2.67 | 13.3 | 2.44 | 7.04 | 1.47 | 3.33 | 1.41 | 4.14 | 2.06 | 4.65 |  |  |  |  |
| CC(NC(=O)C(=O)N/N=C1\C[C@@H](c2ccccc2)Nc2ccccc21)c1ccccc1 (some centres not stated) |  | > 100 |  | > 100 |  | > 100 |  | > 100 |  | > 100 |  | > 100 |  |  |  | > 100 | > 100 | > 100 |  |  |
| O=C1C(=O)N(c2nccs2)C(=O)C(=O)C1c1nc2ccccc2s1 |  | > 100 |  | > 100 |  | > 100 |  | > 100 |  | > 100 |  | > 100 |  |  |  | > 100 |  | > 100 |  |  |
| FC(F)(F)c1cccc2c(SCCc3n[nH]c(=S)o3)ccnc12 | 64.8 | > 100 | 52.7 | > 100 | 37.1 | > 100 | 40 | > 100 | 97.6 | > 100 | 36.3 | > 100 |  |  | 53.3 | > 100 | > 100 | > 100 | 67.8 | > 100 |
| CC(C)C(=O)[O-].CC(C)C(=O)[O-].N.N.N.N.[Co+3].[O-][Cl+3]([O-])([O-])[O-] | > 100 | > 100 | > 100 | > 100 |  |  | > 100 | > 100 | > 100 | > 100 | > 100 | > 100 |  |  | > 100 | > 100 | > 100 | > 100 | > 100 | > 100 |
| O=C(N/C(=C\c1ccc(/C=C(\NC(=O)c2ccccc2)c2nc3ccccc3s2)cc1)c1nc2ccccc2s1)c1ccccc1 |  | 16.5 |  | 22.6 |  | 34.3 |  | 29.9 |  | 31 |  | 26.7 |  |  |  | 6.2 | 5.71 | 14.8 |  |  |
| Cc1ccc(Nc2cc(C)nc(NCCCNc3ccnc4cc(Cl)ccc34)n2)cc1 | 1.36 | 2.77 | 1.69 | 3.26 | 2.14 | 5.91 | 1.78 | 3.63 | 1.85 | 4.62 | 1.3 | 2.56 |  |  | 1.32 | 2.67 | 4.81 | 2.83 | 1.84 | 1.31 |
| Cc1cnccc1N=Nc1ccc(N(C)C)cc1 |  | 26.1 |  | > 100 |  | 29.1 |  | 68.6 |  | > 100 |  | 46.2 |  |  |  | 70.9 | > 100 | > 100 |  |  |
| CCOC(=O)c1ccc(N2C(=O)Cc3ccccc3C2=O)cc1 |  |  |  | > 100 |  | > 100 |  | > 100 |  | > 100 |  | > 100 |  | > 100 |  | > 100 |  | > 100 |  |  |
| COc1ccc(-c2ccc(-c3ccc(C(=N)N)cn3)o2)cc1Cl | 1.66 | 3.18 |  |  | 2.89 | 13.3 | 1.92 | 4.04 | 1.74 | 3.38 | 1.66 | 3.51 |  |  | 1.79 | 3.53 | 5.36 | 3.57 | 2.29 | 1.78 |
| C=C(CNC(=O)c1ccccc1)c1ccc(C(=O)Nc2ccccc2N)cc1 | 5.88 | > 100 | 5.11 | > 100 | 1.39 | 7.41 | 18.7 | > 100 | 2.22 | > 100 |  |  |  |  | 5.43 | 74.5 |  | > 100 |  | 3.62 |
| O=c1cccccc1[O-].O=c1cccccc1[O-].O=c1cccccc1[O-].[Ce+3] |  |  |  | > 100 |  | > 100 |  | 86.1 |  | > 100 |  |  |  |  | 18.3 | 93.6 | 89 | > 100 |  |  |
| CCOc1nccc2c1nc(-c1nonc1N)n2CC | > 25 | > 25 | > 25 | > 25 | > 23.1 | > 25 | > 25 | > 25 | > 25 | > 25 | 16.2 | > 25 |  |  | > 25 | > 25 | > 25 | > 25 | > 25 | > 25 |
